This note sets out measurements from US7851637B2, “Compounds and methods for inhibiting the interaction of BCL proteins with binding partners” (Infinity Pharmaceuticals, Inc., priority 2004, dated 2010).

pIC50, pKi: −log10 of the molar value. Like-named read-outs stand apart in the source and are kept apart here.

For one assay, the target named is Bcl-2 (Homo sapiens, UniProt P10415). Nature of the assay: Bcl-2 binding affinity analysis (fluorescence polarization binding assay). The method in brief: (§1)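 Quantitative binding by polarized-fluorescence detection; in vitro, no cells involved.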
Sequence of Bcl-2 (P10415 whole entry): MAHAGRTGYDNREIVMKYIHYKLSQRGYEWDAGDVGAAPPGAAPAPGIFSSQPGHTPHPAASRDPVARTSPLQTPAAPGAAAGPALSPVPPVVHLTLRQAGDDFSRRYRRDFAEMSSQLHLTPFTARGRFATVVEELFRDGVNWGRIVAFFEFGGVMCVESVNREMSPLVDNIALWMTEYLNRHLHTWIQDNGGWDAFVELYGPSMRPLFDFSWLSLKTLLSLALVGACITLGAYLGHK
In general terms: Polarisation of emitted light reports the rotation of a fluorescent probe.

Another assay addresses Bcl-xL (Homo sapiens, UniProt Q07817). Put plainly: Bcl-xL binding affinity analysis (fluorescence polarization binding assay). The arrangement: scale not given here. The method in brief: as §1
The test system of assay [1] is Human Pancreatic Cancer Cell Line Panc1. Nature of the assay: Cell death assay (propidium iodide/Hoechst) in Panc1 cells with or without camptothecin. It is filed as cell-based. The settings on record: 72 hours, % cell death by propidium iodide/Hoechst. As for the experimental part:
When RL-cells are exposed to isoxazolidine compounds of the present invention, the inhibitors show a dose-dependent cell-killing in the Alamar blue cytoxicity assay with IC50 values of from about 100 μM to about 1 μM (See Examples). When Panc1 cells are exposed to the isoxazolidine compounds of the present invention in combination with camptothecin, the inhibitors show a synergistic dose-dependent cell killing in the propidium iodide exclusion cell survival assay with IC50 values of from about 100 μM to about 1 μM (See Examples).
• 1) Compounds were serially diluted in DMSO from a 9 mM stock to a final concentration of 0.004 mM in a 96 well plate. • 2) Assay plates were prepared by diluting compounds 310 fold into 150 ul of medium containing 10,000 cells/well, with or without 3 uM Camptothecin, resulting in a final DMSO concentration of 0.3% and a compound concentration range from 29 uM to […] for each compound. • 3) Assay plates were incubated at 37 C, 5% CO2 for 72 hours. • 4) After 72 hours, propidium iodide and Hoechst dye were added to each well according to manufacturer's instruction. • 5) Plates were imaged on a fluorescence microscope at wavelengths Ex560/Em650 (Propidium iodide) and Ex360/Em465 (Hoechst) • 6) MetaMorph imaging software was used to determine % cell death by dividing the number of propidium iodide stained cells (dead cells) by the number of Hoechst stained cells (all cells), multipled by 100, in each field.
Panc1 invitro cellular data is presented below for various compounds of the invention.

The mark [2] stands for this setting: Homo sapiens, PANC-1, without camptothecin, read-out: Panc1 − Cpt IC50.
Where [3] appears, read: with 3 uM Camptothecin, read-out: Panc1 + Cpt IC50.

Sequence of Bcl-xL (Q07817 whole entry): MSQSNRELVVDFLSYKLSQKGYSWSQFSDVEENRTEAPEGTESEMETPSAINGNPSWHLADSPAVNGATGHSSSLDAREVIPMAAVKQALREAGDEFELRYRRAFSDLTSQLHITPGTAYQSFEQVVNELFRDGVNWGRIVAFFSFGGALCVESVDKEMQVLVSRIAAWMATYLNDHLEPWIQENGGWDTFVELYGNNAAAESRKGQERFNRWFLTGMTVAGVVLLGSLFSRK

What is called pKi is the negative decadic logarithm of the Ki, by convention in mol/L. By pIC50 is commonly meant the IC50 on a negative log10 scale, so that one unit is a factor of ten. Consider `CC(O)C1C(CO)ON(Cc2cccc(CN(CCN(C)C)Cc3cccs3)c2)C1C(=O)NC1CC2CC(C1C)C2(C)C` (stereo not shown) [Compound 358], for which the negative logarithm of the Ki (pKi) at Bcl-2 is greater than 6.10. On Bcl-xL, the “Bcl-XL binding affinity Ki” value is given as “♯”. Besides, the negative-log IC50 (pIC50) in assay [1] (setting [2]) and in assay [1] (setting [3]) was less than 5.60 in each case.
With `CC(C)C(CN(C)C)NCc1cccc(CN2OC(CO)C(C(C)O)C2C(=O)NC2CC3CC(C2C)C3(C)C)c1` (stereo not shown) [Compound 462], on Bcl-2, the pKi is greater than 6.10. Moreover, the “Bcl-XL binding affinity Ki” value at Bcl-xL is reported as “♯”. Besides, the negative logarithm of the IC50 (pIC50) in assay [1] (setting [2]) and in assay [1] (setting [3]) was less than 5.60 throughout.
`CC(C)C[C@@H](CN(C)C)N(Cc1cccc(CN2O[C@@H](CO)C([C@H](C)O)[C@H]2C(=O)N[C@H]2C[C@H]3C[C@@H]([C@@H]2C)C3(C)C)c1)Cc1c(Cl)cccc1Cl` (stereo partly shown) [Compound 317] gave a negative logarithm of the Ki (pKi) at Bcl-2 greater than 6.10. Besides, the “Bcl-XL binding affinity Ki” value at Bcl-xL is “♯”. For the same compound, the pIC50 in assay [1] (setting [2]) and in assay [1] (setting [3]) was less than 5.60 throughout.
As for `CCOc1c(CN2O[C@@H](CO)[C@@H]([C@H](C)O)[C@H]2C(=O)N[C@H]2C[C@H]3C[C@@H]([C@@H]2C)C3(C)C)cccc1-c1cccc(C(=O)NCCN(C)C)c1` [Compound 495], the negative logarithm of the Ki (pKi) on Bcl-2 is greater than 6.10. Moreover, the “Bcl-XL binding affinity Ki” value on Bcl-xL is given as “♯”. The pIC50 in assay [1] (setting [2]) and in assay [1] (setting [3]) was less than 5.60 throughout.
Regarding `CC(O)C1C(CO)ON(Cc2cccc(CN(CCN3CCCC3)Cc3ccccc3)c2)C1C(=O)NC1CC2CC(C1C)C2(C)C` (stereo not shown) [Compound 430], the pKi at Bcl-2 is greater than 6.10. Further, at Bcl-xL, the “Bcl-XL binding affinity Ki” value is given as “♯”. Besides, the negative logarithm of the IC50 (pIC50) in assay [1] (setting [2]) and in assay [1] (setting [3]) was less than 5.60 in each case.
At Bcl-2, `CC(C)C(CN(C)C)NCc1cccc(CN2OC(CO)C(C(C)O)C2C(=O)NC2CC3CC(C2C)C3(C)C)c1` (stereo not shown) [Compound 463] showed a negative logarithm of the Ki (pKi) greater than 6.10. Besides, the “Bcl-XL binding affinity Ki” value at Bcl-xL is “♯”. The pIC50 in assay [1] (without camptothecin, read-out: Panc1 − Cpt IC50) was less than 5.60.
In turn, `CC(C)CC(CN(C)C)N(Cc1cccc(O)c1)Cc1cccc(CN2OC(CO)C(C(C)O)C2C(=O)NC2CC3CC(C2C)C3(C)C)c1` (stereo not shown) [Compound 310] had a negative-log Ki (pKi) on Bcl-2 greater than 6.10. Also, the “Bcl-XL binding affinity Ki” value on Bcl-xL is reported as “♯”. Besides, the figures for the negative logarithm of the IC50 (pIC50) in assay [1] (setting [2]) and in assay [1] (setting [3]) were less than 5.60 and 5.60 to 5.74, respectively.
On the same counts, the results for `CC(C)CC(CN(C)C)N(Cc1cccc(CN2OC(CO)C(C(C)O)C2C(=O)NC2CC3CC(C2C)C3(C)C)c1)CC1CCCCC1` (stereo not shown) [Compound 303] are greater than 6.10, “♯”, less than 5.60 and less than 5.60.
On to `CNC(=O)c1ccccc1-c1cccc(CN2O[C@@H](CO)[C@@H]([C@H](C)O)[C@H]2C(=O)N[C@H]2C[C@H]3C[C@@H]([C@@H]2C)C3(C)C)c1` [Compound 89], for which the pIC50 was 5.60 to 5.74 in assay [1] (setting [2]) and 5.74 to 5.89 in assay [1] (setting [3]).
`COC(=N)c1ccc(-c2cccc(CN3O[C@@H](CO)[C@@H]([C@H](C)O)[C@H]3C(=O)NC3C[C@@H]4CC([C@@H]3C)C4(C)C)c2)cc1` (stereo partly shown) [Compound 270] had a negative logarithm of the Ki (pKi) on Bcl-2 greater than 6.10. The “Bcl-XL binding affinity Ki” value on Bcl-xL was “♯”.
The like results for `C[C@@H]1[C@@H](NC(=O)[C@@H]2[C@H]([C@H](C)O)[C@H](CO)ON2Cc2cccc(-c3cccc(C(=O)NCCCO)c3)c2)C[C@H]2C[C@@H]1C2(C)C` [Compound 121] were, in that order, greater than 6.10 and “♯♯”.
Turning to `CCNC(=O)c1cccc(-c2cccc(CN3O[C@@H](CO)[C@@H]([C@H](C)O)[C@H]3C(=O)N[C@H]3C[C@H]4C[C@@H]([C@@H]3C)C4(C)C)c2)c1` [Compound 122], the negative logarithm of the Ki (pKi) on Bcl-2 is greater than 6.10. The “Bcl-XL binding affinity Ki” value on Bcl-xL is given as “♯♯”.
On the same counts, the results for `C[C@@H]1[C@@H](NC(=O)[C@@H]2[C@H]([C@H](C)O)[C@H](CO)ON2Cc2cccc(-c3cccc(C(=O)N(C)CCCN(C)C)c3)c2)C[C@H]2C[C@@H]1C2(C)C` [Compound 148] are greater than 6.10 and “♯”.
On Bcl-2, `C[C@@H]1[C@@H](NC(=O)[C@@H]2[C@H]([C@H](C)O)[C@H](COC(=O)NCCN3CCOCC3)ON2Cc2cccc(-c3ccc(C(=O)N(C)C)cc3)c2)C[C@H]2C[C@@H]1C2(C)C` [Compound 245] showed a negative logarithm of the Ki (pKi) greater than 6.10. Moreover, at Bcl-xL, the “Bcl-XL binding affinity Ki” value was “♯”.
The like results for `C[C@@H]1[C@@H](NC(=O)[C@@H]2[C@H]([C@H](C)O)[C@H](CO)ON2Cc2cccc(-c3cccc(C(=O)NCCCN4CCCCC4)c3)c2)C[C@H]2C[C@@H]1C2(C)C` [Compound 111] were, in that order, greater than 6.10 and “♯”.
The like results for `C[C@@H]1[C@@H](NC(=O)[C@@H]2[C@H]([C@H](C)O)[C@H](CO)ON2Cc2cccc(-c3ccc(S(C)(=O)=O)cc3)c2)C[C@H]2C[C@@H]1C2(C)C` [Compound 115] were, in that order, greater than 6.10 and “♯”.
On the same counts, the results for `CC(C)CC(CN(C)C)N(Cc1cccc(CN2OC(CO)C(C(C)O)C2C(=O)NC2CC3CC(C2C)C3(C)C)c1)Cc1ccc(F)cc1O` (stereo not shown) [Compound 329] are greater than 6.10 and “♯”.
In turn, `CC(C)CCN(CCN(C)C)Cc1cccc(CN2O[C@@H](CO)[C@@H]([C@H](C)O)[C@H]2C(=O)N[C@H]2C[C@H]3C[C@@H]([C@@H]2C)C3(C)C)c1` [Compound 207] showed a negative-log Ki (pKi) at Bcl-2 greater than 6.10. On Bcl-xL, the “Bcl-XL binding affinity Ki” value is “♯”.
The like results for `CC(O)C1C(CO)ON(Cc2cccc(C(=O)NC(CCc3ccccc3)CN(C)C)c2)C1C(=O)NC1CC2CC(C1C)C2(C)C` (stereo not shown) [Compound 511] were, in that order, greater than 6.10 and “♯”.
`CC(C)C[C@@H](CN(C)C)NCc1cccc(CN2O[C@@H](CO)C([C@H](C)O)[C@H]2C(=O)N[C@H]2C[C@H]3C[C@@H]([C@@H]2C)C3(C)C)c1` (stereo partly shown) [Compound 552] showed a pKi at Bcl-2 of 5.22 to 6.10. Further, the “Bcl-XL binding affinity Ki” value at Bcl-xL is reported as “♯”.
The like results for `C[C@@H](O)[C@H]1[C@@H](CO)ON(Cc2cccc(C#C[C@@H](O)c3ccccc3)c2)[C@H]1C(=O)NCCCN(C)c1ccccc1` [Compound 48] were, in that order, 5.22 to 6.10 and “♯”.
On the same counts, the results for `C[C@@H](O)[C@@H]1C(C(=O)NCCCN(C)c2ccc(Cl)cc2)N(Cc2cccc(C#CCNC(=O)c3ccccc3)c2)O[C@@H]1CO` (stereo partly shown) [Compound 62] are 4.30 to 5.22 and “♯♯”.
On the same counts, the results for `C[C@H](NC(=O)[C@@H]1[C@H]([C@H](C)O)[C@H](CO)ON1Cc1cccc(CN(CCN(C)C)Cc2ccccc2)c1)c1ccc2ccccc2c1` [Compound 521] are 5.22 to 6.10 and “♯”.
`CNC(=O)c1cccc(-c2cccc(CN3O[C@@H](CO)[C@@H]([C@H](C)O)[C@H]3C(=O)N[C@H]3C[C@H]4C[C@@H]([C@@H]3C)C4(C)C)c2)c1` [Compound 220] had a pKi at Bcl-2 greater than 6.10. The “Bcl-XL binding affinity Ki” value at Bcl-xL is on record as “♯”.
The like results for `C[C@@H]1[C@@H](NC(=O)[C@@H]2[C@H]([C@H](C)O)[C@H](CO)ON2Cc2cccc(CN(CCN(C)C)CCC(C)(C)C)c2)C[C@H]2C[C@@H]1C2(C)C` [Compound 203] were, in that order, greater than 6.10 and “♯”.
Compound `C[C@@H]1[C@@H](NC(=O)[C@@H]2[C@H]([C@H](C)O)[C@H](CO)ON2CCCCN(CCN(C)C)Cc2ccccc2)C[C@H]2C[C@@H]1C2(C)C` [Compound 547] had a pKi at Bcl-2 of 5.22 to 6.10. The “Bcl-XL binding affinity Ki” value at Bcl-xL is “♯”.
On the same counts, the results for `CC(O)C1C(CO)ON(Cc2cccc(CNC(CCc3ccccc3)CN(C)C)c2)C1C(=O)NC1CC2CC(C1C)C2(C)C` (stereo not shown) [Compound 468] are greater than 6.10 and “♯”.
On the same counts, the results for `C[C@@H]1[C@@H](NC(=O)[C@@H]2[C@H]([C@H](C)O)[C@H](CO)ON2CCCCN(CCN(C)C)Cc2ccccc2F)C[C@H]2C[C@@H]1C2(C)C` [Compound 550] are 5.22 to 6.10 and “♯”.
Turning to `C[C@@H]1[C@@H](NC(=O)[C@@H]2[C@H]([C@H](C)O)[C@H](CO)ON2Cc2cccc(C#CC3(NC(=O)C4CCN(C)CC4)CCCCC3)c2)CC2C[C@@H]1C2(C)C` [Compound 90], the pIC50 in assay [1] (setting [2]) was less than 5.60; in assay [1] (setting [3]), 5.74 to 5.89.
`CC(O)C1C(CO)ON(Cc2cccc(CN(CCN(C)C)Cc3ccccc3N3CCN(C)CC3)c2)C1C(=O)NC1CC2CC(C1C)C2(C)C` (stereo not shown) [Compound 385] gave a negative-log Ki (pKi) on Bcl-2 greater than 6.10. For the same compound, the “Bcl-XL binding affinity Ki” value on Bcl-xL is reported as “♯”.
The like results for `C[C@@H]1[C@@H](NC(=O)[C@@H]2[C@H]([C@H](C)O)[C@H](CO)ON2Cc2cccc(-c3ccc(S(N)(=O)=O)cc3)c2)C[C@H]2C[C@@H]1C2(C)C` [Compound 120] were, in that order, greater than 6.10 and “♯♯”.
On the same counts, the results for `CC(C)C[C@@H](CN(C)C)N(Cc1ccccc1)Cc1cccc(CN2O[C@@H](CO)[C@@H]([C@H](C)O)[C@H]2C(=O)NCc2ccccc2)c1` [Compound 542] are 5.22 to 6.10 and “♯”.
